Test results as given in patent publication EP0387661A2, “New 3'-(4-morpholinyl)- and 3'-(2-methoxy-4-morpholinyl)-anthracycline derivatives” (priority 1989, dated 1990).
Values after ≈ are worked out from the molar mass of the structure shown.

Columns and labels:
[1] = system: LoVo (human colon adenocarcinoma); assay: in vitro cytotoxicity (colony growth inhibition) against LoVo cells; format: cell-based; conditions: concentration inhibiting by 50% colony growth, tested as hydrochlorides
Experimental: (§1) All compounds were tested as their hydrochlorides.

LoVo/DX cells = assay: in vitro cytotoxicity (colony growth inhibition) against LoVo/DX cells; format: cell-based, human; conditions: for R.I. = Resistance Index = (IC50 LoVo/DX)/(IC50 LoVo): ratio of IC50 LoVo/DX to IC50 LoVo; for Cytotoxicity after 4h of treatment (IC50) LoVo/DX: concentration inhibiting by 50% colony growth, tested as hydrochlorides
Experimental: as §1

in vivo [2] = conditions: mouse, in vivo, iv
Experimental: (§2) The biological activity of the compounds according to the invention was tested in vitro against LoVo (human colon adenocarcinoma) and LoVo/DX cells in comparison with doxorubicin. The compounds of the invention were also tested in vivo against P388 and P388/DX murine leukemia in comparison with doxorubicin. All compounds were tested as their hydrochlorides.

P388 = assay: in vivo; conditions: for %T/C (Median survival time of treated mice/median survival time of controls x 100): P388 (iv, iv+1), at optimal dose
Experimental: as §2

in vivo [3] = conditions: mouse, in vivo, iv; remark: listed apart in the source
Experimental: as §2

P388/DX Johnson = assay: in vivo; conditions: for %T/C (Median survival time of treated mice/median survival time of controls x 100): P388/DX Johnson (iv, iv+1), at optimal dose
Experimental: as §2

| SMILES | IC50 ([1]; Homo sapiens, LoVo, 4h of treatment, read-out: Cytotoxicity after 4h of treatment (IC50) LoVo) | R.I. = Resistance Index = (IC50 LoVo/DX)/(IC50 LoVo) (LoVo/DX cells) | MTD (in vivo [2]) | %T/C (Median survival time of treated mice/median survival time of controls x 100) (P388) | MTD (in vivo [3]) | %T/C (Median survival time of treated mice/median survival time of controls x 100) (P388/DX Johnson) | Cytotoxicity after 4h of treatment (IC50) LoVo [1] | Cytotoxicity after 4h of treatment (IC50) LoVo/DX (LoVo/DX cells) | O.D. (Optimal dose: maximum tolerated dose (LD10)) (P388; P388 (iv, iv+1): tumor implanted intravenously, treatment begins one day after implantation) | O.D. (Optimal dose: maximum tolerated dose (LD10)) (P388/DX Johnson; P388/DX Johnson (iv, iv+1): tumor implanted intravenously, treatment begins one day after implantation) |
| --- | --- | --- | --- | --- | --- | --- | --- | --- | --- | --- |
| COc1cccc2c1C(=O)c1c(O)c3c(c(O)c1C2=O)C[C@@](O)(C(=O)CO)C[C@@H]3O[C@H]1C[C@H](N)[C@H](O)[C@H](C)O1 [Doxorubicin, reference compound] | 0.06 µg/mL (≈ 0.11 µM) | 36 | 13 mg/kg | 250% | 13 mg/kg | 100% | – | – | – | – |
| C[C@@H]1O[C@@H](O[C@H]2C[C@](O)(C(=O)CO)Cc3c2cc2c(c3O)C(=O)c3cccc(O)c3C2=O)C[C@H](N2CCOCC2)[C@@H]1O [Ia, 4-demethyl-6-deoxy-3′-deamino-3′-(4-morpholinyl) doxorubicin] | – | 4.7 | – | 222% | – | 183% | 0.0355 µg/mL | 0.1654 µg/mL | – | – |
| CC(=O)[C@]1(O)Cc2c(O)c3c(c(O)c2[C@@H](O[C@H]2C[C@H](N4CCOCC4)[C@H](O)[C@H](C)O2)C1)C(=O)c1c(N)cccc1C3=O [Ib, 4-demethoxy-4-amino-3′-deamino-3′-(4-morpholinyl)-daunorubicin] | – | 2.1 | – | 156% | – | 167% | 0.0137 µg/mL | 0.0285 µg/mL | – | – |
| CC(=O)[C@]1(O)Cc2c(O)c3c(c(O)c2[C@@H](O[C@H]2C[C@H](N4CCOCC4)[C@@H](O)[C@H](C)O2)C1)C(=O)c1c(N)cccc1C3=O [Ic, 4-demethoxy-4-amino-3′-deamino-3′-(4-morpholinyl)-4′-epi-daunorubicin] | – | 1.3 | – | – | 20 mg/kg | 195% | 0.036 µg/mL | 0.0485 µg/mL | – | – |
| CC(=O)[C@]1(O)Cc2c(O)c3c(c(O)c2[C@@H](O[C@H]2C[C@H](N4CCOCC4)[C@@H](O)[C@H](C)O2)C1)C(=O)c1c(F)cccc1C3=O [Ie, 4-demethoxy-4-fluoro-3′-deamino-3′-(4-morpholinyl)-4′-epi-daunorubicin] | – | 3.6 | 6.3 mg/kg | 411% | 6.3 mg/kg | 244% | 0.047 µg/mL | 0.168 µg/mL | – | – |
| COC1CN(C2CC(OC3CC(O)(C(C)=O)Cc4c(O)c5c(c(O)c43)C(=O)c3ccccc3C5=O)OC(C)C2O)CCO1 (centres unmarked) [Il, 4-demethoxy-3′-deamino-3′-(2-methoxy-4-morpholinyl)-daunorubicin] | – | 11.5 | – | 133% | – | 161% | 0.0002 µg/mL | 0.0023 µg/mL | 0.14 mg/kg | 0.36 mg/kg |
